Data published in PubChem BioAssay AID328 (DTP/NCI, 2004).
Where “and” joins values, the source holds several entries; their conditions need not be identical. Identical values can stand only once. Toxic doses and inconclusive results are not listed.

System: BDF1 mice, P388 leukemia ip, median survival T/C
Test: NCI In Vivo Anticancer Drug Screen. Data for tumor model P388 Leukemia (intraperitoneal) in B6D2F1 (BDF1) mice
Settings: endpoint: median survival time, higher = longer survival
How it was run: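 Compound-treated tumour-bearing mice were compared with vehicle-treated controls. Survival was recorded, and the value is the treated-group measurement divided by the control-group measurement (T/C).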

[1] = dose: 12.5 mg/kg/injection, schedule: Q01DX009 (ip), vehicle: saline
[2] = dose: 25.0 mg/kg/injection, schedule: Q01DX009 (ip), vehicle: saline
[3] = dose: 50.0 mg/kg/injection, schedule: Q01DX009 (ip), vehicle: saline
[4] = dose: 50.0 mg/kg/injection, schedule: Q01DX009 (ip), vehicle: saline with Tween-80
[5] = dose: 100.0 mg/kg/injection, schedule: Q01DX009 (ip), vehicle: saline with Tween-80
[6] = dose: 100.0 mg/kg/injection, schedule: Q04DX003 (ip), vehicle: saline with Tween-80
[7] = dose: 200.0 mg/kg/injection, schedule: Q01DX009 (ip), vehicle: saline with Tween-80
[8] = dose: 200.0 mg/kg/injection, schedule: Q04DX003 (ip), vehicle: saline with Tween-80
[9] = dose: 400.0 mg/kg/injection, schedule: Q04DX003 (ip), vehicle: saline with Tween-80

SMILES: COc1c2ccoc2nc2c(OC)c3c(cc12)OCO3
- T/C [1]: 109 % of control
- T/C [2]: 107 % of control
- T/C [3]: 109 % of control

SMILES: COc1cc(-c2nc3ccccc3c(=O)o2)cc(OC)c1OC
- T/C [4]: 105 % of control
- T/C [5]: 115 % of control
- T/C [6]: 100 % of control
- T/C [7]: 100 % of control
- T/C [8]: 100 % of control

SMILES: C=C(C)C12OC3(c4ccccc4)OC1C1C4OC4(CO)C(O)C4(O)C(=O)C(C)=CC4C1(O3)C(C)C2OC(=O)/C=C/c1ccccc1 (configuration not stated)
- T/C (dose: 6.3 micrograms/kg/injection, schedule: Q## X009 (ip), vehicle: saline + alcohol): 114 % of control
- T/C (dose: 12.5 micrograms/kg/injection, schedule: Q## X009 (ip), vehicle: saline + alcohol): 110 % of control
- T/C (dose: 25.0 micrograms/kg/injection, schedule: Q## X009 (ip), vehicle: saline + alcohol): 118 % of control
- T/C (dose: 50.0 micrograms/kg/injection, schedule: Q## X009 (ip), vehicle: saline + alcohol): 109 % of control
- T/C (dose: 100.0 micrograms/kg/injection, schedule: Q## X009 (ip), vehicle: saline + alcohol): 159 % of control
- T/C (dose: 200.0 micrograms/kg/injection, schedule: Q## X009 (ip), vehicle: saline + alcohol): 173 % of control

SMILES: CC1CC/C(=N\N(C)C)c2ccccc21 (configuration not stated)
- T/C (dose: 67.0 mg/kg/injection, schedule: Q04DX003 (ip), vehicle: saline with Tween-80): 118 % of control
- T/C [6]: 122 % of control
- T/C [9]: 120 % of control

SMILES: Cc1ccc(NCc2cccc3ccccc23)c(C)c1
- T/C (dose: 100.0 mg/kg/injection, schedule: Q04DX003 (ip), vehicle: saline): 91 % of control
- T/C (dose: 200.0 mg/kg/injection, schedule: Q04DX003 (ip), vehicle: saline): 100 % of control
- T/C (dose: 400.0 mg/kg/injection, schedule: Q04DX003 (ip), vehicle: saline): 95 % of control

SMILES: CCC[CH2][Sn]1([CH2]CCC)[N](S(=O)(=O)c2ccc(C)cc2)c2ccccc2[N]1S(=O)(=O)c1ccc(C)cc1
- T/C (dose: 1.5 mg/kg/injection, schedule: Q01DX009 (ip), vehicle: Klucel (hydroxypropylcellulose) (HPC)): 91 % of control
- T/C (dose: 6.0 mg/kg/injection, schedule: Q01DX009 (ip), vehicle: Klucel (hydroxypropylcellulose) (HPC)): 150 % of control
- T/C (dose: 12.0 mg/kg/injection, schedule: Q01DX009 (ip), vehicle: Klucel (hydroxypropylcellulose) (HPC)): 176 % of control

SMILES: COC(=O)CC(C)Cc1ccc(OC)c(OC)c1 (configuration not stated)
- T/C [5]: 104 % of control
- T/C [6]: 95 % of control
- T/C [7]: 112 % of control
- T/C [8]: 109 % of control
- T/C [9]: 109 % of control

SMILES: CCCCCCCCCCCCN=Cc1cc(Cc2ccc(O)c(C=NCCCCCCCCCCCC)c2)ccc1O
- T/C [4]: 106 % of control
- T/C [5]: 106 % of control
- T/C [7]: 123 % of control

SMILES: CC(=O)OC1C=CCC2C(=O)C34CC=CC(OC(C)=O)C3(C(=O)c3ccccc3C4=O)C(=O)C12 (configuration not stated)
- T/C (dose: 3.12 mg/kg/injection, schedule: Q01DX009 (ip), vehicle: saline): 95 % of control
- T/C [1]: 95 % of control
- T/C [2]: 114 % of control

SMILES: O=C(Nc1ccc(Cl)cc1)P(=O)(O)c1ccccc1
- T/C (dose: 6.25 mg/kg/injection, schedule: Q01DX009 (ip), vehicle: saline): 98 % of control
- T/C [1]: 104 % of control
- T/C [2]: 98 % of control
- T/C [3]: 99 % of control
- T/C (dose: 100.0 mg/kg/injection, schedule: Q01DX009 (ip), vehicle: saline): 100 % of control and 102 % of control

SMILES: COc1cc2c(c(OC)c1OC)CC/C(=C\O)C2=O
- T/C (dose: 50.0 mg/kg/injection, schedule: Q01DX009 (ip), vehicle: Klucel (hydroxypropylcellulose) (HPC)): 112 % of control
- T/C (dose: 100.0 mg/kg/injection, schedule: Q01DX009 (ip), vehicle: Klucel (hydroxypropylcellulose) (HPC)): 114 % of control
- T/C (dose: 200.0 mg/kg/injection, schedule: Q01DX009 (ip), vehicle: Klucel (hydroxypropylcellulose) (HPC)): 106 % of control
